Test results taken from ChEMBL document CHEMBL1157064, “Homoisoflavonoids from the fibrous roots of Polygonatum odoratum with glucose uptake-stimulatory activity in 3T3-L1 adipocytes” (J Nat Prod, 2010).
Active and inactive are the calls of the source. No cut-off for these calls is given here.

What follows are compounds tested on 3T3-L1 (assay: Increase in insulin-stimulated [3H]2-deoxy-D-glucose uptake in mouse 3T3L1cells at 1 uM after 3 days by liquid scintillation counting relative to insulin).
Assay type: functional, cell-based

**Q.** How did the Activity turn out when `COc1ccc(CC2COc3c(C)c(O)c(C)c(O)c3C2=O)cc1O` (racemic) was run?
**A.** The Activity was “Active”.

**Q.** How did the Activity turn out when `COc1c(O[C@@H]2O[C@H](CO)[C@@H](O)[C@H](O)[C@H]2O)cc2occ(-c3ccc(O)cc3)c(=O)c2c1O` was run?
**A.** The Activity was “Active”.

**Q.** With `Cc1c(O)c(C)c2c(c1O)C(=O)/C(=C/c1ccc(O)cc1)CO2` as the compound, how does the Activity read?
**A.** Its Activity is “Active”.

**Q.** How did the Activity turn out when `COc1ccc(C[C@@H]2COc3c(C)c(O)c(C)c(O)c3C2=O)cc1` was run?
**A.** The Activity was “Active”.

**Q.** How did the Activity turn out when `COc1ccc(CC2COc3c(OC)c(O)c(C)c(O)c3C2=O)c(O)c1` (racemic) was run?
**A.** The Activity was “Active”.

**Q.** With `COc1c(O)c(C)c(O)c2c1OC[C@@H](Cc1ccc(O)cc1)C2=O` as the compound, how does the Activity read?
**A.** Its Activity is “Active”.

**Q.** For `COc1ccc([C@@H]2CC(=O)c3c(O)cc(O[C@@H]4O[C@H](CO[C@@H]5O[C@@H](C)[C@H](O)[C@@H](O)[C@H]5O)[C@@H](O)[C@H](O)[C@H]4O)cc3O2)cc1O`, which Activity is on record?
**A.** The Activity was “Active”.

**Q.** For `COc1ccc(CC2COc3c(C)c(O)c(C)c(O)c3C2=O)c(O)c1` (racemic), which Activity is on record?
**A.** The Activity was “Active”.

**Q.** With `O=C1/C(=C/c2ccc(O)cc2)COc2cc(O[C@@H]3O[C@H](CO)[C@@H](O)[C@H](O)[C@H]3O)cc(O)c21` as the compound, how does the Activity read?
**A.** The Activity was “Active”.

**Q.** For `Cc1c(O)c(C)c2c(c1O)C(=O)[C@H](Cc1ccc(O)cc1)CO2`, which Activity is on record?
**A.** The Activity was “Active”.

**Q.** `COc1ccc(C[C@@H]2COc3c(OC)c(O)c(C)c(O)c3C2=O)cc1` was tested. Which Activity did it give?
**A.** The Activity was “Active”.
